The values below come from patent US10702603B2 (priority 2012, dated 2020).

Where “and” joins values, the source holds several entries; their conditions need not be identical. Equal values may be shown once. Read-outs that look alike come from different tables or passages of the source. Some results are limits rather than exact numbers.

The conditions of series [1]: cited from earlier work.
A further series has as its system XMuLV. The experiment in a line: Viral inactivation study with TRITON X-100 using 3 different antibodies.
In series [2] the test system is Xenotropic Murine Leukemia Virus (XMuLV). The class given is cell-based.

Turning to TRITON X-100, in series [1] (at 25° C. in water), the CMC is recorded as 0.01-0.02 % w/w. Moreover, in the series on XMuLV (0.25-0.5× CMC (0.006% w/w), below the CMC), the viral inactivation result is listed as “No viral inactivation”. Also, the XMuLV inactivation with XMuLV (1-2× CMC (0.02% w/w), ambient temperature, within 45 min) was over 4 log.
In the case of `CCCCCCCCCC[N+](C)(C)CCCS(=O)(=O)[O-]` [ZWITTERGENT 3-10, n-Decyl-N,N-dimethyl-3-ammonio-1-propanesulfonate], the CMC in series [1] ([…]) was 25 to 40 mM.
In the case of `CCCCCCCCCCCC[N+](C)(C)CC(=O)[O-]` [EMPIGEN BB, N,N-Dimethyl-N-dodecylglycine betaine], the CMC in series [1] ([…]) was 1.6 to 2.1 mM.
In the case of `CCCCCCCCCCCCCCCC[N+](C)(C)CCCS(=O)(=O)[O-]` [Sulfobetaine-16, N-hexadecyl-N,N-dimethyl-3-ammonio-1-propanesulfonate], in series [2], the “Log Reduction Factor (120 min)” value was 4.2; the “Log Reduction Factor (LRF)” value was 3.16 and 3.15 and 3.14.
Turning to `CCCCCCCCCCCC[N+](C)(C)[O-]` [LDAO, N,N-dimethyldodecylamine N-oxide], in series [2], the “Log Reduction Factor (120 min)” value amounted to 4; the “Log Reduction Factor (LRF)” value was 3.14 and 3.07 and 3.08. Further, the CMC in series [1] ([…]) was 1 to 2 mM.
With `CCCCCCCCCCCC[N+](C)(C)CCCCCCCCCCC(=O)[O-]` [DDMAU, N-Dodecyl-N,N-(dimethylammonio)undecanoate], the CMC in series [1] ([…]) is 0.13 mM.
With `C[C@H](CCC(=O)NCCC[N+](C)(C)CC(O)CS(=O)(=O)[O-])[C@H]1CC[C@H]2[C@@H]3[C@H](O)C[C@@H]4C[C@H](O)CC[C@]4(C)[C@H]3C[C@H](O)[C@]12C` (stereo partly shown) [CHAPSO, 3-([3-Cholamidopropyl]dimethylammonio)-2-hydroxy-1-propanesulfonate], the CMC in series [1] ([…]) is 8 mM.
Take `CCCCCCCC[N+](C)(C)CCCS(=O)(=O)[O-]` [ZWITTERGENT 3-08, n-Octyl-N,N-dimethyl-3-ammonio-1-propanesulfonate]: in series [1] ([…]), the CMC is 330 mM.
Regarding `C[C@H](CCC(=O)NCCC[N+](C)(C)CCCS(=O)(=O)[O-])[C@H]1CC[C@H]2[C@@H]3[C@H](O)C[C@@H]4C[C@H](O)CC[C@]4(C)[C@H]3C[C@H](O)[C@]12C` [CHAPS, 3-[(3-cholamidopropyl)dimethylammonio]-1-propanesulfonate], in series [1] ([…]), the CMC is 6 to 10 mM.
Consider `CCCCCCCCCCCCCC[N+](C)(C)CCCS(=O)(=O)[O-]` [Sulfobetaine-14, N-tetradecyl-N,N-dimethyl-3-ammonio-1-propanesulfonate], for which the “Log Reduction Factor (120 min)” value in series [2] was found to be 4.7.
Regarding `CCCCCCCCCCCC[N+](C)(C)CCCS(=O)(=O)[O-]` [Sulfobetaine-12, N-dodecyl-N,N-dimethyl-3-ammonio-1-propanesulfonate], in series [2], the “Log Reduction Factor (120 min)” value came to 4.2.
